From the kinase profiling compilation of Christmann-Franck et al. (2016)

Experiments:
Assay in all cases: KINOMEscan competition binding
Settings in all cases: compound 1.0 µM
PDGFRA (human) = PDGFRA (human) (UniProt P16234)
EPHA3 (human) = EPHA3 (human) (UniProt P29320)
SRMS (human) = SRMS (human) (UniProt Q9H3Y6)
CHUK (human) = CHUK (human) (UniProt O15111)
MAP4K2 (human) = MAP4K2 (human) (UniProt Q12851)
MAST1 (human) = MAST1 (human) (UniProt Q9Y2H9)
PRKCI (human) = PRKCI (human) (UniProt P41743)
[1] = target: JAK1 JH1 catalytic (human) (UniProt P23458)
Chain of JAK1 JH1 catalytic (human) (P23458 whole entry, looked up): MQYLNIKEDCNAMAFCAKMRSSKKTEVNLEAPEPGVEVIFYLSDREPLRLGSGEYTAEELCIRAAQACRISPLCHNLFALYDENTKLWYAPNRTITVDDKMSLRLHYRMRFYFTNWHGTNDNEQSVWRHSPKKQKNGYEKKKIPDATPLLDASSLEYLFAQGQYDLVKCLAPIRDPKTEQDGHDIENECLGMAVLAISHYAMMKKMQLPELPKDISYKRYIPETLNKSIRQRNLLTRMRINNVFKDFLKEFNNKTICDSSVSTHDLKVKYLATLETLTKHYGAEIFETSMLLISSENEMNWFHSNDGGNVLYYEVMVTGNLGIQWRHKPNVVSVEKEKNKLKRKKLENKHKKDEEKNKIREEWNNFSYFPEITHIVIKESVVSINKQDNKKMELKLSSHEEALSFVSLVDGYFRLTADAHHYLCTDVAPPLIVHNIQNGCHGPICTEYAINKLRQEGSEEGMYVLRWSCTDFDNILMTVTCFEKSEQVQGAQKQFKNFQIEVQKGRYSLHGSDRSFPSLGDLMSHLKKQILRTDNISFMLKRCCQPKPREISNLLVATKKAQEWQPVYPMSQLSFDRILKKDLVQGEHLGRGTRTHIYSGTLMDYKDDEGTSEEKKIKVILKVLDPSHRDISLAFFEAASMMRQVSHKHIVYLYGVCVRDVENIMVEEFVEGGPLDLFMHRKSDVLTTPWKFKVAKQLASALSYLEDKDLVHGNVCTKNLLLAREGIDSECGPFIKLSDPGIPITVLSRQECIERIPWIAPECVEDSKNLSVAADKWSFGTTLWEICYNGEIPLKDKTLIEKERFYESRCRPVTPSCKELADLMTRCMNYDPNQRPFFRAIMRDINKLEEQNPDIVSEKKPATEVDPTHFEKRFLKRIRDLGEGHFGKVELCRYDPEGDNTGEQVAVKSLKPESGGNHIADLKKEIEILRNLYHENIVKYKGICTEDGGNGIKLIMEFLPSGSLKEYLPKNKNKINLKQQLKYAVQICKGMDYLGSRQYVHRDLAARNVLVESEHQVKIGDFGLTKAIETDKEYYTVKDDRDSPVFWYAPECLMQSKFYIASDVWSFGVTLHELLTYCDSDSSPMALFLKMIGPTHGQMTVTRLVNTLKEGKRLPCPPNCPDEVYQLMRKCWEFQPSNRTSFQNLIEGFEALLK

[2] = test system: PIK3CA (human), P42336 [E545A]
Chain of PIK3CA (human), P42336 [E545A] (P42336 whole entry E545A, looked up): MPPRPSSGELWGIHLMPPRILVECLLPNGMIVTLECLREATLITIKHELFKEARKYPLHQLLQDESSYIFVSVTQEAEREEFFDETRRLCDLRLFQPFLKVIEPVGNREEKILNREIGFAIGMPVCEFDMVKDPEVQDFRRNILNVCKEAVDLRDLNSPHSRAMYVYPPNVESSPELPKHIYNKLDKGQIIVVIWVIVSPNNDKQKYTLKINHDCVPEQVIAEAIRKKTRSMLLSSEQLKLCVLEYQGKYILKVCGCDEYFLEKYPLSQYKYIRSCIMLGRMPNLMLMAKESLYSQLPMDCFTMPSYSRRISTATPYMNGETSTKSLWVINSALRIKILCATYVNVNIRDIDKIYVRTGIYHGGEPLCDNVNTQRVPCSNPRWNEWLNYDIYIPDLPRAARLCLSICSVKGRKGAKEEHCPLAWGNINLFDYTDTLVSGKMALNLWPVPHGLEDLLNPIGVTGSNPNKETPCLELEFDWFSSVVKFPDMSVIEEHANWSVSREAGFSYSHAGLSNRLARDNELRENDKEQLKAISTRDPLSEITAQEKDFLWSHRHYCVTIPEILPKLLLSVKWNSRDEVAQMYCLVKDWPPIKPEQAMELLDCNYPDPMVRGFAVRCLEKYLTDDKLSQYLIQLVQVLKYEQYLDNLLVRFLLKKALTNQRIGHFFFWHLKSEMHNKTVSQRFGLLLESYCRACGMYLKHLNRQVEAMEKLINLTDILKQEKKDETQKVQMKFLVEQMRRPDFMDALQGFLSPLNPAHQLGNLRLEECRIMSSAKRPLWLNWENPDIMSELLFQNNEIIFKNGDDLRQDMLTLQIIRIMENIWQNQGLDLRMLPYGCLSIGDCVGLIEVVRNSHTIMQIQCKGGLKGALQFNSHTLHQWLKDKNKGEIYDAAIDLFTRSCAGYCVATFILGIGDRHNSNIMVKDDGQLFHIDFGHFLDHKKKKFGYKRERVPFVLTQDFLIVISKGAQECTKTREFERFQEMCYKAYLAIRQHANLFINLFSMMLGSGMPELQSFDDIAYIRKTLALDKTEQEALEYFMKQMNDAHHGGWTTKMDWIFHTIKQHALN

CSNK1D (human) = CSNK1D (human) (UniProt P48730)
[3] = test system: RET (human), P07949 [V804M]
CDK8 (human) = CDK8 (human) (UniProt P49336)
CSNK1G2 (human) = CSNK1G2 (human) (UniProt P78368)
RPS6KA1 KD2 (human) = RPS6KA1 KD2 (human) (UniProt Q15418)
[4] = test system: PIK3CA (human), P42336 [H1047L]
Chain of PIK3CA (human), P42336 [H1047L] (P42336 whole entry H1047L, looked up): as the sequence (P42336 whole entry E545A, looked up) above, with A545E, H1047L counted along it

DDR2 (human) = DDR2 (human) (UniProt Q16832)
PIP5K1A (human) = PIP5K1A (human) (UniProt Q99755)
STK36 (human) = STK36 (human) (UniProt Q9NRP7)
AURKA (human) = AURKA (human) (UniProt O14965)
PIP4K2C (human) = PIP4K2C (human) (UniProt Q8TBX8)
INSRR (human) = INSRR (human) (UniProt P14616)
IRAK3 (human) = IRAK3 (human) (UniProt Q9Y616)
CAMK2G (human) = CAMK2G (human) (UniProt Q13555)
CSNK1A1 (human) = CSNK1A1 (human) (UniProt P48729)
PLK1 (human) = PLK1 (human) (UniProt P53350)
STK38 (human) = STK38 (human) (UniProt Q15208)
RPS6KA2 KD1 (human) = RPS6KA2 KD1 (human) (UniProt Q15349)
VRK2 (human) = VRK2 (human) (UniProt Q86Y07)
MAP2K7 (human) = MAP2K7 (human) (UniProt O14733)
MAP3K3 (human) = MAP3K3 (human) (UniProt Q99759)
PIK3CD (human) = PIK3CD (human) (UniProt O00329)
MAPK9 (human) = MAPK9 (human) (UniProt P45984)
PRKD3 (human) = PRKD3 (human) (UniProt O94806)
BLK (human) = BLK (human) (UniProt P51451)
Chain of BLK (human) (P51451 whole entry, looked up): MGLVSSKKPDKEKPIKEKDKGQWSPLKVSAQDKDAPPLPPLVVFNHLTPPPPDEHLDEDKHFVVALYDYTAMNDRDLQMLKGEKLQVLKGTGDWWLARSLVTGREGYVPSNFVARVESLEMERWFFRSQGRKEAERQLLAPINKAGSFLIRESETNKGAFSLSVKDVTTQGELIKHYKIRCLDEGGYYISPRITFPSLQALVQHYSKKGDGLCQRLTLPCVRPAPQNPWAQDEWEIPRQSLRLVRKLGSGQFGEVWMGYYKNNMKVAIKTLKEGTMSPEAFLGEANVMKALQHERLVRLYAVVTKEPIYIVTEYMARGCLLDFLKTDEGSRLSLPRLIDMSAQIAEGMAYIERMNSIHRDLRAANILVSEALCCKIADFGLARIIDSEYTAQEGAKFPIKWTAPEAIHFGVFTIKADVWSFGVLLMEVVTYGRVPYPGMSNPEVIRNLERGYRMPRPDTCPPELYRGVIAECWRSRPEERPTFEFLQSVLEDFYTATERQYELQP

AKT1 (human) = AKT1 (human) (UniProt P31749)
STK17A (human) = STK17A (human) (UniProt Q9UEE5)
MYLK (human) = MYLK (human) (UniProt Q15746)
CDK2 (human) = CDK2 (human) (UniProt P24941)
PAK6 (human) = PAK6 (human) (UniProt Q9NQU5)
MAPK4 (human) = MAPK4 (human) (UniProt P31152)
[5] = test system: FLT3 (human), P36888 [D835H]
SIK2 (human) = SIK2 (human) (UniProt Q9H0K1)
Chain of SIK2 (human) (Q9H0K1 whole entry, looked up): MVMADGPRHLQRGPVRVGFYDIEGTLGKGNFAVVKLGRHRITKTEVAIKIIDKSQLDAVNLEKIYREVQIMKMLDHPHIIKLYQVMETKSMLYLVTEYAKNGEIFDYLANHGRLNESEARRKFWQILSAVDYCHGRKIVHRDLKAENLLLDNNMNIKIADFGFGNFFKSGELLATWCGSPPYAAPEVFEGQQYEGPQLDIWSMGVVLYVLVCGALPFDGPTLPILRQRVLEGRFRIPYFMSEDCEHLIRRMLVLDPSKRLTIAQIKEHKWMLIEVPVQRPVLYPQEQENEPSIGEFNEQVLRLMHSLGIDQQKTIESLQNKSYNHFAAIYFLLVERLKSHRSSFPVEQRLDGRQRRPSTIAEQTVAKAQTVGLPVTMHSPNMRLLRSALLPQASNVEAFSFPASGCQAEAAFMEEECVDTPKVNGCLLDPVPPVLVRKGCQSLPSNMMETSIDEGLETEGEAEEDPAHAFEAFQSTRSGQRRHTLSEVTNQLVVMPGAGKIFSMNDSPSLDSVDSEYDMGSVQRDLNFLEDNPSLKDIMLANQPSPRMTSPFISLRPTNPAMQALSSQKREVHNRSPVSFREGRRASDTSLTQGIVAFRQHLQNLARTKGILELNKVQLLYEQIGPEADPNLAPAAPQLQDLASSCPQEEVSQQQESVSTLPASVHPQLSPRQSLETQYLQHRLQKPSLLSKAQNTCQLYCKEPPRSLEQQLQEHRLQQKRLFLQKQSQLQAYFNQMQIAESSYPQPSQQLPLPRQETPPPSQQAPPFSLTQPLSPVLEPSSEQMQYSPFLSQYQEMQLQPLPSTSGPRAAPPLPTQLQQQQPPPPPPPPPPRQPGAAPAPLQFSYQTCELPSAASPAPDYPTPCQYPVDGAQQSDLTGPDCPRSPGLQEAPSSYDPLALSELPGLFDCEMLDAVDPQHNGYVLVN

IKBKE (human) = IKBKE (human) (UniProt Q14164)

Chain of SRMS (human) (Q9H3Y6 whole entry, looked up): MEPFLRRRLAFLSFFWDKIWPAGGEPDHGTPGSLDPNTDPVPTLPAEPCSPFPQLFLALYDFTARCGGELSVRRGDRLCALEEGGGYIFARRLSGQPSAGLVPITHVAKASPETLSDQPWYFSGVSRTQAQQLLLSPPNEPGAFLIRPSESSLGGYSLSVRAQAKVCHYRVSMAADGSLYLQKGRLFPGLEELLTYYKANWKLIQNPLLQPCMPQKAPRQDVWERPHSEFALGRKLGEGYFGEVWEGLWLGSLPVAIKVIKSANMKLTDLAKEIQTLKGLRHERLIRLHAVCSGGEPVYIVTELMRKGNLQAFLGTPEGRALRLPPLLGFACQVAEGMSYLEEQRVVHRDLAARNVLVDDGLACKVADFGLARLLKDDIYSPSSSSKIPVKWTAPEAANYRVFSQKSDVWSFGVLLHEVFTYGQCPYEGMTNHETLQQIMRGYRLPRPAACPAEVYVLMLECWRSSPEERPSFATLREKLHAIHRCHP
Chain of MAP4K2 (human) (Q12851 whole entry, looked up): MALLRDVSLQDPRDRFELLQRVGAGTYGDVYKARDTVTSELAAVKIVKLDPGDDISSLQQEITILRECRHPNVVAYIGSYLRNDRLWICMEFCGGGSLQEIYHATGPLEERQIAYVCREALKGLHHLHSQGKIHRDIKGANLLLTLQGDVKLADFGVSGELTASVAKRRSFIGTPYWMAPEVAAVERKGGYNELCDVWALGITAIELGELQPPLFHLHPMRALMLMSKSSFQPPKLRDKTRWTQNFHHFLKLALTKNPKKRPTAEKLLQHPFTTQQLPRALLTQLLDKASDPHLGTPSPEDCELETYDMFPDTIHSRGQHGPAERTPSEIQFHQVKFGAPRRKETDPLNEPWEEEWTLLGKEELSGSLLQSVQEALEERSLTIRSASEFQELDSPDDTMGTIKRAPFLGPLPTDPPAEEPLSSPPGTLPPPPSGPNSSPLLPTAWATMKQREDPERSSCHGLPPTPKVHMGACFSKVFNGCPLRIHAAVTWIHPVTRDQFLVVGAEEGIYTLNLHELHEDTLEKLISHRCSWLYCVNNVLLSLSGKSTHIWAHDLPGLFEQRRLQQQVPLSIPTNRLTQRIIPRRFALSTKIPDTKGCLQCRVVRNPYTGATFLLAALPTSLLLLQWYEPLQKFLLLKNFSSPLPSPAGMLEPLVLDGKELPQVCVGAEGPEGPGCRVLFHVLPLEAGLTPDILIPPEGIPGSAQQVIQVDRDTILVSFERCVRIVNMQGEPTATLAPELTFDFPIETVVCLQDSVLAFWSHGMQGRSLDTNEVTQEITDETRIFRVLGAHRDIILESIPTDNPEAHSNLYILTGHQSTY

COCCNCCCn1c(C(=O)CF)c(-c2ccc(C)cc2)c2c(N)ncnc21
kinase still bound, per cent of control (PDGFRA (human)): 83% | kinase still bound, per cent of control (EPHA3 (human)): 88% | kinase still bound, per cent of control (SRMS (human)): 99% | kinase still bound, per cent of control (CHUK (human)): 72% | kinase still bound, per cent of control (MAP4K2 (human)): 94% | kinase still bound, per cent of control (MAST1 (human)): 83% | kinase still bound, per cent of control (PRKCI (human)): 75% | kinase still bound, per cent of control [1]: 100% | kinase still bound, per cent of control [2]: 100% | kinase still bound, per cent of control (CSNK1D (human)): 82% | kinase still bound, per cent of control [3]: 100% | kinase still bound, per cent of control (CDK8 (human)): 100% | kinase still bound, per cent of control (CSNK1G2 (human)): 100% | kinase still bound, per cent of control (RPS6KA1 KD2 (human)): 31% | kinase still bound, per cent of control [4]: 100% | kinase still bound, per cent of control (DDR2 (human)): 99% | kinase still bound, per cent of control (PIP5K1A (human)): 100% | kinase still bound, per cent of control (STK36 (human)): 95% | kinase still bound, per cent of control (AURKA (human)): 92% | kinase still bound, per cent of control (PIP4K2C (human)): 100% | kinase still bound, per cent of control (INSRR (human)): 100% | kinase still bound, per cent of control (IRAK3 (human)): 86% | kinase still bound, per cent of control (CAMK2G (human)): 100% | kinase still bound, per cent of control (CSNK1A1 (human)): 100% | kinase still bound, per cent of control (PLK1 (human)): 100% | kinase still bound, per cent of control (STK38 (human)): 100% | kinase still bound, per cent of control (RPS6KA2 KD1 (human)): 83% | kinase still bound, per cent of control (VRK2 (human)): 100% | kinase still bound, per cent of control (MAP2K7 (human)): 78% | kinase still bound, per cent of control (MAP3K3 (human)): 96% | kinase still bound, per cent of control (PIK3CD (human)): 100% | kinase still bound, per cent of control (MAPK9 (human)): 94% | kinase still bound, per cent of control (PRKD3 (human)): 100% | kinase still bound, per cent of control (BLK (human)): 100% | kinase still bound, per cent of control (AKT1 (human)): 100% | kinase still bound, per cent of control (STK17A (human)): 98% | kinase still bound, per cent of control (MYLK (human)): 100% | kinase still bound, per cent of control (CDK2 (human)): 83% | kinase still bound, per cent of control (PAK6 (human)): 93% | kinase still bound, per cent of control (MAPK4 (human)): 100% | kinase still bound, per cent of control [5]: 100% | kinase still bound, per cent of control (SIK2 (human)): 82% | kinase still bound, per cent of control (IKBKE (human)): 100%
